Experimental data from ChEMBL document CHEMBL1201862, “PubChem BioAssay data set” (2004).
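In this assay, cells in 96-well plates receive the compound at five concentrations for 48 hours. Endpoints are linearly interpolated between the surrounding concentrations. GI50: concentration for 50% inhibition of growth.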 Active and inactive are the calls of the source. Rule as the data show it: active = GI50 up to about 1.1 µM and inactive = higher.

How the values were obtained:
Assay in all cases: NCI tumour cell line growth inhibition, 48 h
A498 = tested on: A498
A549 = tested on: A549
CAKI-1 = tested on: CAKI-1
CCRF-CEM = tested on: CCRF-CEM
COLO 205 = tested on: COLO 205
DLD-1 = tested on: DLD-1
DMS-114 = tested on: DMS-114
DMS-273 = tested on: DMS-273
EKVX = tested on: EKVX
HCC 2998 = tested on: HCC 2998
HCT-116 = tested on: HCT-116
HCT-15 = tested on: HCT-15
HL-60 = tested on: HL-60
HOP-18 = tested on: HOP-18
HOP-62 = tested on: HOP-62
HOP-92 = tested on: HOP-92
HT-29 = tested on: HT-29
IGROV-1 = tested on: IGROV-1
K562 = tested on: K562
KM-20L2 = tested on: KM-20L2
KM12 = tested on: KM12
LOX IMVI = tested on: LOX IMVI
M19-MEL = tested on: M19-MEL
MCF7 = tested on: MCF7
MOLT-4 = tested on: MOLT-4
Malme-3M = tested on: Malme-3M
NCI-H226 = tested on: NCI-H226
NCI-H23 = tested on: NCI-H23
NCI-H460 = tested on: NCI-H460
NCI-H522 = tested on: NCI-H522
NCI/ADR-RES = tested on: NCI/ADR-RES
OVCAR-3 = tested on: OVCAR-3
OVCAR-4 = tested on: OVCAR-4
OVCAR-5 = tested on: OVCAR-5
OVCAR-8 = tested on: OVCAR-8
RPMI-8226 = tested on: RPMI-8226
RXF 393 = tested on: RXF 393
SF-268 = tested on: SF-268
SF-295 = tested on: SF-295
SF-539 = tested on: SF-539
SK-MEL-28 = tested on: SK-MEL-28
SK-MEL-2 = tested on: SK-MEL-2
SK-MEL-5 = tested on: SK-MEL-5
SK-OV-3 = tested on: SK-OV-3
SN12C = tested on: SN12C
SNB-19 = tested on: SNB-19
SNB-75 = tested on: SNB-75
SNB-78 = tested on: SNB-78
SW-620 = tested on: SW-620
U-251 = tested on: U-251
UACC-257 = tested on: UACC-257
UACC-62 = tested on: UACC-62
UO-31 = tested on: UO-31
XF498 = tested on: XF498
786-0 = tested on: 786-0
ACHN = tested on: ACHN
LXFL 529 = tested on: LXFL 529
M14 = tested on: M14
SR = tested on: SR
TK-10 = tested on: TK-10

SMILES: CC(=O)OCc1cc(=O)n(C)c2c3c4c(cc12)c(C)cc(=O)n4CO3
- GI50 (A498): 2.38 µM (inactive)
- GI50 (A549): 1.69 µM (inactive)
- GI50 (CAKI-1): 1.95 µM (inactive)
- GI50 (CCRF-CEM): 0.853 µM (active)
- GI50 (COLO 205): 1.23 µM (inactive)
- GI50 (DLD-1): 1.37 µM (inactive)
- GI50 (DMS-114): 1.69 µM (inactive)
- GI50 (DMS-273): 0.982 µM (active)
- GI50 (EKVX): 2.44 µM (inactive)
- GI50 (HCC 2998): 1.52 µM (inactive)
- GI50 (HCT-116): 0.367 µM (active)
- GI50 (HCT-15): 1.95 µM
- GI50 (HL-60): 1.4 µM (inactive)
- GI50 (HOP-18): 5.33 µM (inactive)
- GI50 (HOP-62): 1.2 µM (inactive)
- GI50 (HOP-92): 1.95 µM (inactive)
- GI50 (HT-29): 1.49 µM (inactive)
- GI50 (IGROV-1): 1.21 µM (inactive)
- GI50 (K562): 1.14 µM (inactive)
- GI50 (KM-20L2): 2.02 µM (inactive)
- GI50 (KM12): 1.23 µM (inactive)
- GI50 (LOX IMVI): 1.26 µM (inactive)
- GI50 (M19-MEL): 1.43 µM (inactive)
- GI50 (MCF7): 2.3 µM (inactive)
- GI50 (MOLT-4): 0.478 µM (active)
- GI50 (Malme-3M): 0.906 µM (active)
- GI50 (NCI-H226): 1.58 µM (inactive)
- GI50 (NCI-H23): 1.68 µM (inactive)
- GI50 (NCI-H460): 0.52 µM (active)
- GI50 (NCI-H522): 0.711 µM (active)
- GI50 (NCI/ADR-RES): 1 µM (active)
- GI50 (OVCAR-3): 1.45 µM (inactive)
- GI50 (OVCAR-4): 1.42 µM (inactive)
- GI50 (OVCAR-5): 2.73 µM (inactive)
- GI50 (OVCAR-8): 0.555 µM (active)
- GI50 (RPMI-8226): 1.51 µM (inactive)
- GI50 (RXF 393): 1.3 µM (inactive)
- GI50 (SF-268): 0.782 µM (active)
- GI50 (SF-295): 1.57 µM (inactive)
- GI50 (SF-539): 1.03 µM (active)
- GI50 (SK-MEL-28): 1.64 µM (inactive)
- GI50 (SK-MEL-2): 1.75 µM (inactive)
- GI50 (SK-MEL-5): 1.66 µM (inactive)
- GI50 (SK-OV-3): 3.56 µM (inactive)
- GI50 (SN12C): 1.66 µM (inactive)
- GI50 (SNB-19): 1.61 µM (inactive)
- GI50 (SNB-75): 1.91 µM (inactive)
- GI50 (SNB-78): 1.99 µM (inactive)
- GI50 (SW-620): 0.489 µM (active)
- GI50 (U-251): 1.23 µM (inactive)
- GI50 (UACC-257): 2.05 µM (inactive)
- GI50 (UACC-62): 1.34 µM (inactive)
- GI50 (UO-31): 1.64 µM (inactive)
- GI50 (XF498): 1.17 µM (inactive)

SMILES: CN1C(=O)C(=O)c2cc3c(c4c2c1cc1ccccc14)OCO3 [CEPHARADIONE A]
- GI50 (786-0): 7.23 µM (inactive)
- GI50 (A498): > 100 µM (inactive)
- GI50 (A549): 33.7 µM (inactive)
- GI50 (ACHN): 18.8 µM (inactive)
- GI50 (CAKI-1): 31.3 µM (inactive)
- GI50 (CCRF-CEM): 8.95 µM (inactive)
- GI50 (COLO 205): 28.7 µM (inactive)
- GI50 (DLD-1): 31.2 µM (inactive)
- GI50 (DMS-114): 31.6 µM (inactive)
- GI50 (DMS-273): 22.9 µM (inactive)
- GI50 (EKVX): 69.7 µM (inactive)
- GI50 (HCC 2998): 49.1 µM (inactive)
- GI50 (HCT-116): 15.6 µM (inactive)
- GI50 (HCT-15): 36.1 µM
- GI50 (HL-60): 38.5 µM (inactive)
- GI50 (HOP-18): 42.9 µM (inactive)
- GI50 (HOP-62): 41.2 µM (inactive)
- GI50 (HOP-92): > 100 µM (inactive)
- GI50 (HT-29): 34.4 µM (inactive)
- GI50 (IGROV-1): 37.6 µM (inactive)
- GI50 (K562): 27.2 µM (inactive)
- GI50 (KM-20L2): 39.4 µM (inactive)
- GI50 (KM12): 18.3 µM (inactive)
- GI50 (LOX IMVI): 23 µM (inactive)
- GI50 (LXFL 529): 30.8 µM (inactive)
- GI50 (M14): 26.7 µM (inactive)
- GI50 (M19-MEL): 28.4 µM (inactive)
- GI50 (MOLT-4): 17.9 µM (inactive)
- GI50 (Malme-3M): 38.8 µM (inactive)
- GI50 (NCI-H226): 25.2 µM (inactive)
- GI50 (NCI-H23): 40.7 µM (inactive)
- GI50 (NCI-H460): 26.7 µM (inactive)
- GI50 (NCI-H522): 22.6 µM (inactive)
- GI50 (OVCAR-3): 62.1 µM (inactive)
- GI50 (OVCAR-4): 58.6 µM (inactive)
- GI50 (OVCAR-5): 48.8 µM (inactive)
- GI50 (OVCAR-8): 24.1 µM (inactive)
- GI50 (RPMI-8226): 25.1 µM (inactive)
- GI50 (RXF 393): 25.6 µM (inactive)
- GI50 (SF-268): 21.9 µM (inactive)
- GI50 (SF-295): 38.7 µM (inactive)
- GI50 (SF-539): 45.6 µM (inactive)
- GI50 (SK-MEL-28): 40.5 µM (inactive)
- GI50 (SK-MEL-2): 46.7 µM (inactive)
- GI50 (SK-MEL-5): 28.4 µM (inactive)
- GI50 (SK-OV-3): 50.4 µM (inactive)
- GI50 (SN12C): 37.7 µM (inactive)
- GI50 (SNB-19): 47.4 µM (inactive)
- GI50 (SNB-75): 39.2 µM (inactive)
- GI50 (SNB-78): 7.83 µM (inactive)
- GI50 (SR): 7.5 µM (inactive)
- GI50 (SW-620): 35.4 µM (inactive)
- GI50 (TK-10): 52.5 µM (inactive)
- GI50 (U-251): 43.4 µM (inactive)
- GI50 (UACC-257): 51.5 µM (inactive)
- GI50 (UACC-62): 16.9 µM (inactive)
- GI50 (UO-31): 20.2 µM (inactive)
- GI50 (XF498): > 100 µM (inactive)
